Measured values from US5536850A, “Substance DC114-A1” (Kyowa Hakko Kogyo Co., Ltd., priority 1993, dated 1996).
Values after ≈ are worked out from the molar mass of the structure shown. Like-named read-outs stand apart in the source and are kept apart here.

Tests used:
[1] = system: Pseudomonas aeruginosa Bin H No. 1; experiment: Antibacterial activity, MIC by agar dilution method; format: cell-based; settings: pH 7
Description: (§1) The antibacterial activity was determined by the agar dilution method using a medium (pH 7) which comprises 3 g/l Bacto-tryptone (produced by Difco Laboratories), 3 g/l meat extract, 1 g/l yeast extract, 1 g/l glucose and 16 g/l agar.

[2] = system: Enterococcus faecium ATCC 10541; experiment: as above; format: cell-based
Description: as §1

[3] = system: Proteus vulgaris ATCC 6897; experiment: as above; format: cell-based
Description: as §1

[4] = system: Bacillus subtilis No. 10707; experiment: as above; format: cell-based
Description: as §1

[5] = system: Staphylococcus aureus ATCC 6538P; experiment: as above; format: cell-based; settings: ATCC6538P, pH 7
Description: as §1

[6] = system: Shigella sonnei ATCC 9290; experiment: as above; format: cell-based; settings: ATCC9290, pH 7
Description: as §1

[7] = system: Salmonella typhi ATCC 9992; experiment: as above; format: cell-based; settings: Salmonella enterica, pH 7
Description: as §1

[8] = system: Escherichia coli ATCC 26; experiment: as above; format: cell-based; settings: ATCC26, pH 7
Description: as §1

[9] = system: Candida albicans ATCC 10231; experiment: as above; format: cell-based
Description: as §1

[10] = system: Klebsiella pneumoniae ATCC 10031; experiment: as above; format: cell-based
Description: as §1

[11] = system: HeLaS3 cells; experiment: Growth inhibition against HeLaS3 cells; format: cell-based; settings: Homo sapiens, HeLa S3, 1 h
Description: HeLaS3 cells (ATCC HTB22) were suspended in a medium comprising 10% fetal calf serum, 2 mM glutamine and MEM medium (produced by Nissui Pharmaceutical Co., Ltd.) (hereinafter referred to as medium A) to a concentration of 3×10^4 cells/ml. The cell suspension was put into wells of a 96-well microtiter plate in an amount of 0.1 ml per well. The cells in the plate were cultured at 37° C. for 20 hours in a CO2 -incubator. Subsequently, the test compound appropriately diluted with medium A was added to the wells in an amount of 0.1 ml/well. The cells were further cultured at 37° C. for one hour in the CO2 -incubator, and then the culture supernatant was removed. To the residue was added a medium comprising medium A and 0.02% Neutral Red in an amount of 0.1 ml per well, followed by culturing at 37° C. for one hour in the CO2 -incubator, whereby the cells were stained. After removal of the culture supernatant, the residue was washed once with physiological saline. The pigment was extracted with 0.001 N hydrochloric acid/30% ethanol, and the absorbance at 550 nm was measured by using a microplate reader. The concentration of the test compound at which the growth of the cells is inhibited by 50% (IC50) was calculated by comparing the absorbance of untreated cells with those of the cells treated with the test compound at known concentrations.

[12] = Solubility; format: physicochemical

Cc1cc2c(O)c3c(cc2c2oc(C4(C)OC4C4CO4)cc(=O)c12)C(=O)C1OC1(C1CC(=O)C(O)C(C)O1)C3O (centres unmarked) [DC114-C, reference compound]
MIC ([1]; Pseudomonas aeruginosa Bin H No. 1, agar dilution, read-out: MIC): 41.7 µg/mL (≈ 75.7 µM) | MIC ([2]; ATCC10541, Enterococcus faecium ATCC 10541, agar dilution, pH 7, read-out: MIC): 0.16 µg/mL (≈ 0.291 µM) | MIC ([3]; ATCC6897, Proteus vulgaris ATCC 6897, agar dilution, pH 7, read-out: MIC): 5.21 µg/mL (≈ 9.46 µM) | MIC ([4]; Bacillus subtilis No. 10707, agar dilution, pH 7, read-out: MIC): 0.33 µg/mL (≈ 0.599 µM) | MIC ([5]; Staphylococcus aureus ATCC 6538P, agar dilution, read-out: MIC): 0.16 µg/mL (≈ 0.291 µM) | MIC [6]: 20.8 µg/mL (≈ 37.8 µM) | MIC [7]: 20.8 µg/mL (≈ 37.8 µM) | MIC [8]: 20.8 µg/mL (≈ 37.8 µM) | MIC ([9]; ATCC10231, Candida albicans ATCC 10231, agar dilution, pH 7, read-out: MIC): > 83.3 µg/mL | MIC ([10]; ATCC10031, Klebsiella pneumoniae ATCC 10031, agar dilution, pH 7, read-out: MIC): 5.21 µg/mL (≈ 9.46 µM) | IC50 ([11]; HeLaS3 cells, one hour with compound, 37° C., Neutral Red, absorbance at 550 nm, read-out: IC50): 21 nM

Cc1cc2c(O)c3c(cc2c2oc(C4(C)OC4C4CO4)cc(=O)c12)C(=O)C1OC1(C1CC(=O)C(O)C(C)O1)C3=O (centres unmarked) [DC114-A1]
MIC ([1]; Pseudomonas aeruginosa): 5.21 µg/mL (≈ 9.5 µM) | MIC ([2]; Enterococcus faecium, ATCC10541, pH 7): 0.16 µg/mL (≈ 0.292 µM) | MIC ([3]; Proteus vulgaris, ATCC6897, pH 7): 2.6 µg/mL (≈ 4.74 µM) | MIC ([4]; Bacillus subtilis, NO.10707, pH 7): 0.33 µg/mL (≈ 0.602 µM) | MIC ([5]; Staphylococcus aureus): 0.04 µg/mL (≈ 0.0729 µM) | MIC [6]: 5.21 µg/mL (≈ 9.5 µM) | MIC [7]: 5.21 µg/mL (≈ 9.5 µM) | MIC [8]: 5.21 µg/mL (≈ 9.5 µM) | MIC ([9]; Candida albicans, ATCC10231, pH 7): 5.21 µg/mL (≈ 9.5 µM) | MIC ([10]; Klebsiella pneumoniae, ATCC10031, pH 7): 5.21 µg/mL (≈ 9.5 µM) | IC50 [11]: 12 nM | Solubility ([12]; acetone): Soluble | Solubility ([12]; chloroform): sparingly soluble | Solubility ([12]; dimethylsulfoxide (DMSO)): Soluble | Solubility ([12]; ethyl acetate): sparingly soluble | Solubility ([12]; methanol): Soluble | Solubility ([12]; n-hexane): sparingly soluble | Solubility ([12]; water): sparingly soluble
